The assay addresses T1, KCNQ2/3 channels (Homo sapiens, UniProt O43525+O43526).
T1 construct: expressed in transfected cells
Kind of assay: Fluorescence assay using a voltage sensitive dye (fluorimetry). It counts as cell-based. Particulars: for EC50: IC50 where % efficacy is negative, read-out: Fluorimetry EC50/IC50. From the text:
Method I. Fluorescence Assay Using a Voltage Sensitive Dye (Fluorimetry)
These voltage-sensitive dyes are fluorescent dyes and, therefore, are forming the link between cell potential influenced by KCNQ modulation and fluorescence intensity. A KCNQ agonist leads to an opening of the channel, potassium and dye efflux, a following hyperpolarization and a reduction of the inner fluorescence intensity in a kinetic protocol. If applying an ion jump by KCl depolarization, KCNQ agonists increase the ΔF/F value. An antagonist performs vice versa, respectively.
Therefore, ‘fluorimetry EC50’ is a measure for the compound potency. The compound efficacy is mirrored by ‘fluorimetry % efficacy’ (‘% Efficacy’) and refers to the maximum response achievable by the test compound, i.e. the plateau effect. This drug's plateau effect is related to the plateau effect, which can be achieved by applying a saturated concentration of a reference compound, e.g. Retigabine (50 μM), in independent wells of the same experimental plate or series.
[…] CHO-K1 cells expressing KCNQ2/3 channels are cultivated adherently at 37° C., 5% CO2 and 95% humidity in cell culture bottles (e.g. 80 cm^2 TC flasks, Nunc) with DMEM-high glucose (Sigma Aldrich, D7777) including 10% FCS (PAN Biotech, e.g. 3302-P270521) or alternatively MEM Alpha Medium (1×, liquid, Invitrogen, #22571), 10% fetal calf serum (FCS) (Invitrogen, #10270-106, heat-inactivated) and the necessary selection antibiotics.
The cell number is determined using a CASY™ cell counter (TCC, Schärfe System). Depending on the optimal density for each individual cell line, 20,000-30,000 cells/well/100 μl are seeded onto 96-well Corning™ CellBIND™ assay plates (Flat Clear Bottom Black Polystyrene Microplates, #3340). Freshly seeded cells are then left to settle for one hour at room temperature, followed by incubation for 24 hours at 37° C., 5% CO2 and 95% humidity.
The voltage-sensitive fluorescent dye from the Membrane Potential Assay Kit (Red™ Bulk format part R8123 for FLIPR, MDS Analytical Technologies™) is prepared by dissolving the contents of one vessel Membrane Potential Assay Kit Red Component A in 200 ml of extracellular buffer (ES buffer, 120 mM NaCl, 1 mM KCl, 10 mM HEPES, 2 mM CaCl2, 2 mM MgCl2, 10 mM glucose; pH 7.4). After removal of the nutrient medium, the cells are washed once with 200 μl of ES buffer, then loaded for 45 min at room temperature in 100 μl of dye solution in the dark.
Fluorescence measurements are carried out in a BMG Labtech FLUOstar™, BMG Labtech NOVOstar™ or BMG Labtech POLARstar™ instrument (525 nm excitation, 560 nm emission, Bottom Read mode). After incubation with the dye, 50 μl of the test substances in the desired concentrations, or 50 μl of ES buffer for control purposes, are applied to the wells of the assay plate and incubated for 30 min at room temperature while being shielded from light. The fluorescence intensity of the dye is then measured for 5 min and the fluorescence value F1 of each well is thus determined at a given, constant time. 15 μl of a KCl solution are then added to each well (final concentration of potassium ions 92 mM). The change in fluorescence intensity is subsequently monitored until all the relevant values have been obtained (mainly 5-30 min). At a given time post KCl application, a fluorescence value F2 is determined, in this case at the time of the fluorescence peak.
For calculation, the fluorescence intensity F2 is corrected for the fluorescence intensity F1, and the activity (ΔF/F) of the target compound on the potassium channel is determined as follows:
In order to determine whether a substance has agonistic activity,
[formula] can be related to
[formula] of control wells.
[formula] is determined by adding to the well only the buffer solution instead of the test substance, determining the value F1K of the fluorescence intensity, adding the potassium ions as described above, and measuring a value F2K of the fluorescence intensity.

Where [1] appears, read: CHO-K1, plateau effect relative to saturated retigabine (50 μM) = 100%, CHO-K1 cells expressing KCNQ2/3, negative values = antagonistic, read-out: Fluorimetry % efficacy (retigabine = 100%).
Where [2] appears, read: CHO-K1 cells expressing KCNQ2/3.

We go through 24 compounds from US9168259B2 (GRÜNENTHAL GMBH, priority 2010, dated 2015).

Like-named read-outs stand apart in the source and are kept apart here.

T1 sequence (O43526 whole entry): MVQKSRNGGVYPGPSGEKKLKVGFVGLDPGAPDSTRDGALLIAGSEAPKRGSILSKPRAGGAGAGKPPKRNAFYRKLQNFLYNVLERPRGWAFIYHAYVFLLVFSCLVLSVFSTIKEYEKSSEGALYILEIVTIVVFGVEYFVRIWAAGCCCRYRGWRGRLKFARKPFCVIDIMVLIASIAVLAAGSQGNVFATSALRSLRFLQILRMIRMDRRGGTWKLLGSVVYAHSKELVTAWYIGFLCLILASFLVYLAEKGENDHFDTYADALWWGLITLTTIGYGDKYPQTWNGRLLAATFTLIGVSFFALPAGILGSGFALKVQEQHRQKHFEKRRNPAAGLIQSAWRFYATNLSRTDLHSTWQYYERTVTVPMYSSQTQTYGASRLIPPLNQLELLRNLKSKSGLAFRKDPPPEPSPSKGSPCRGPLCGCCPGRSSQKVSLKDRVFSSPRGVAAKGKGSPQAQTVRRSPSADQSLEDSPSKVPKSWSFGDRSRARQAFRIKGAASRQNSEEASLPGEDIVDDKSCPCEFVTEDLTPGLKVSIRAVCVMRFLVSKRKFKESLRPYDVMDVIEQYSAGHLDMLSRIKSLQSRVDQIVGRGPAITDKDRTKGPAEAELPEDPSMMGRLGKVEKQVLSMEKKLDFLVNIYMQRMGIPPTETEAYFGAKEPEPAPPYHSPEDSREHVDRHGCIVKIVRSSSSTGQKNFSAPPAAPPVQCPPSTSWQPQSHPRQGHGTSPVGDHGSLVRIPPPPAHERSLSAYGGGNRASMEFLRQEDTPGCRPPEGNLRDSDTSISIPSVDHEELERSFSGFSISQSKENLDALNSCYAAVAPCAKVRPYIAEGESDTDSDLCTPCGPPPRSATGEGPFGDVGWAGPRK
T1 sequence (O43525 whole entry): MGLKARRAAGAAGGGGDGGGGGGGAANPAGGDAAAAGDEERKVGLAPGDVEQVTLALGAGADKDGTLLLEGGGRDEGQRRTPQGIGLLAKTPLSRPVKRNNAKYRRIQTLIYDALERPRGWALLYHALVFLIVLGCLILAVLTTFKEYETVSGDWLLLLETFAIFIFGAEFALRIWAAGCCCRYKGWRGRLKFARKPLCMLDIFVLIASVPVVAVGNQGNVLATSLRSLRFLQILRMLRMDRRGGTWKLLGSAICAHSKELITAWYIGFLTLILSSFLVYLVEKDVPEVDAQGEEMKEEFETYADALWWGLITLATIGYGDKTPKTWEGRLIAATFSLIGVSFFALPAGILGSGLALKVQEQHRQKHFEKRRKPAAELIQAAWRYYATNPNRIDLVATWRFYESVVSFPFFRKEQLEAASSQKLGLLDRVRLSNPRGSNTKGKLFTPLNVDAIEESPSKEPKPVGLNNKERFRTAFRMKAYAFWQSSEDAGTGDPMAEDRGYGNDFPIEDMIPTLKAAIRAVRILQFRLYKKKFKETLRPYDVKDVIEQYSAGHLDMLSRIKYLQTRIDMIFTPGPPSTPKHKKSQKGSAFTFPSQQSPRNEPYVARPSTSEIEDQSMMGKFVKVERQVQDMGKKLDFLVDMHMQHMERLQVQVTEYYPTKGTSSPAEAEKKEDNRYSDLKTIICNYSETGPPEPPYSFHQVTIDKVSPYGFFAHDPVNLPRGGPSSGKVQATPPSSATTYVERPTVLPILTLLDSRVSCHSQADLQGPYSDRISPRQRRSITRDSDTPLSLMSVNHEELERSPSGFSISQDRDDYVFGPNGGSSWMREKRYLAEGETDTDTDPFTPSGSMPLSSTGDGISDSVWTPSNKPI

With `CCSc1nc(N2CCOC(C)C2)cc(C)c1C(=O)NCc1cccc(F)c1` (racemic) [Example 48, 2-Ethylsulfanyl-N-[(3-fluorophenyl)-methyl]-4-methyl-6-(2-methyl-morpholin-4-yl)-pyridine-3-carboxylic acid amide], the Emax under setting [1] was 145%. The EC50 under setting [2] is 217 nM. On to `Cc1cc(N2CCOCC2)nc(C2CC2)c1C(=O)NCCC(O)C(C)(C)C` (racemic) [Example X1, 2-Cyclopropyl-N-(3-hydroxy-4,4-dimethyl-pentyl)-4-methyl-6-morpholin-4-yl-pyridine-3-carboxylic acid amide], for which the EC50 under setting [2] amounted to 529 nM.

In the case of `Cc1cc(N2CCOCC2)nc(C(C)C)c1C(=O)NCCC(O)C(C)(C)C` (racemic) [Example X5, N-(3-Hydroxy-4,4-dimethyl-pentyl)-2-isopropyl-4-methyl-6-morpholin-4-yl-pyridine-3-carboxylic acid amide], the EC50 under setting [2] is 156 nM. For the compound `Cc1cc(N2CCOCC2)nc(C(C)C)c1C(=O)NCCC(O)C(F)(F)F` (racemic) [Example X6, 2-Isopropyl-4-methyl-6-morpholin-4-yl-N-(4,4,4-trifluoro-3-hydroxy-butyl)-pyridine-3-carboxylic acid amide], the EC50 under setting [2] stood at 1990 nM. Take `COc1nc(N2CCOCC2)cc(C)c1C(=O)NCc1cc(F)cc(F)c1` [Example 3, N-[(3,5-Difluoro-phenyl)-methyl]-2-methoxy-4-methyl-6-morpholin-4-yl-pyridine-3-carboxylic acid amide]: under setting [1], the Emax stood at 132%. For the same compound, under setting [2], the EC50 turned out to be 233 nM. For `CCSc1nc(N(C)CC2CCCCO2)cc(C)c1C(=O)NCc1cccc(F)c1` (stereo not drawn) [Example 5, 2-Ethylsulfanyl-N-[(3-fluorophenyl)-methyl]-4-methyl-6-[methyl-(tetrahydro-pyran-2-yl-methyl)-amino]-pyridine-3-carboxylic acid amide] the same measures were 111% and 269 nM.

As to `CCSc1nc(N2CC(OC)C2)cc(C)c1C(=O)NCc1cccc(F)c1` [Example 6, 2-Ethylsulfanyl-N-[(3-fluorophenyl)-methyl]-6-(3-methoxy-azetidin-1-yl)-4-methyl-pyridine-3-carboxylic acid amide], the Emax under setting [1] worked out at 140%. Besides, under setting [2], the EC50 stood at 3870 nM. As to `CCSc1nc(N2CC(O)C2)cc(C)c1C(=O)NCc1cccc(F)c1` [Example 7, 2-Ethylsulfanyl-N-[(3-fluorophenyl)-methyl]-6-(3-hydroxy-azetidin-1-yl)-4-methyl-pyridine-3-carboxylic acid amide], under setting [1], the Emax worked out at 44%. `C/C=C/c1nc(N2CCOCC2)cc(C)c1C(=O)NCc1cccc(F)c1` [Example 9, N-[(3-Fluorophenyl)-methyl]-4-methyl-6-morpholin-4-yl-2-[(E)-prop-1-enyl]pyridine-3-carboxylic acid amide]: under setting [1], the Emax is 174%. In addition, the EC50 under setting [2] turned out to be 740 nM. Regarding `CCSc1nc(N2CCOCC2)cc(C(F)(F)F)c1C(=O)NCc1cccc(F)c1` [Example 11, 2-Ethylsulfanyl-N-[(3-fluorophenyl)-methyl]-6-morpholin-4-yl-4-(trifluoromethyl)-pyridine-3-carboxylic acid amide], the Emax under setting [1] came out at 41%. Further, under setting [2], the EC50 was 175 nM.

For `Cc1cc(N2CCOCC2)nc(N2CCOCC2)c1C(=O)NCc1cccc(F)c1` [Example 12, N-[(3-Fluorophenyl)-methyl]-4-methyl-2,6-dimorpholin-4-yl-pyridine-3-carboxylic acid amide], the Emax under setting [1] amounted to 210%. Also, under setting [2], the EC50 is 2010 nM. Consider `CCSc1nc(N2CCC(C(=O)OC)CC2)cc(C)c1C(=O)NCc1cccc(F)c1` [Example 13], for which the Emax (CHO-K1, read-out: Fluorimetry % efficacy (retigabine = 100%)) amounted to 145%. For the same compound, under setting [2], the EC50 was determined as 1090 nM. Regarding `CCSc1nc(N2CCC(C(=O)O)CC2)cc(C)c1C(=O)NCc1cccc(F)c1` [Example 14], the Emax under setting [1] came out at 16%. Turning to `CCSc1nc(N2CCC(O)CC2)cc(C)c1C(=O)NCc1cccc(F)c1` [Example 15, 2-Ethylsulfanyl-N-[(3-fluorophenyl)-methyl]-6-(4-hydroxy-piperidin-1-yl)-4-methyl-pyridine-3-carboxylic acid amide], under setting [1], the Emax came out at 93%. Besides, the EC50 under setting [2] was determined as 7060 nM. On to `CCSc1nc(N2CCC(=O)CC2)cc(C)c1C(=O)NCc1cccc(F)c1` [Example 16, 2-Ethylsulfanyl-N-[(3-fluorophenyl)-methyl]-4-methyl-6-(4-oxo-piperidin-1-yl)-pyridine-3-carboxylic acid amide], for which, under setting [1], the Emax was determined as 149%. Besides, the EC50 under setting [2] came to 2520 nM. Regarding `CCSc1nc(N2CCOCC2)cc(C)c1C(=O)NCc1ccc(F)cc1OC` [Example 17, 2-Ethylsulfanyl-N-[(4-fluoro-2-methoxy-phenyl)methyl]-4-methyl-6-morpholin-4-yl-pyridine-3-carboxylic acid amide], the Emax under setting [1] was 21%.

With `CCSc1nc(N2CCOCC2)cc(C)c1C(=O)NCc1ccc(F)cc1O` [Example 18, 2-Ethylsulfanyl-N-[(4-fluoro-2-hydroxy-phenyl)methyl]-4-methyl-6-morpholin-4-yl-pyridine-3-carboxylic acid amide], the Emax under setting [1] worked out at 224%. The EC50 under setting [2] amounted to 98 nM. The corresponding values for `CCNc1nc(N2CCOCC2)cc(C)c1C(=O)NCc1cccc(F)c1` [Example 20, 2-Ethylamino-N-[(3-fluorophenyl)-methyl]-4-methyl-6-morpholin-4-yl-pyridine-3-carboxylic acid amide] are 140% and 782 nM. As for `COCCOc1nc(N2CCOCC2)cc(C)c1C(=O)NCc1cccc(F)c1` [Example 21, N-[(3-Fluorophenyl)-methyl]-2-(2-methoxy-ethoxy)-4-methyl-6-morpholin-4-yl-pyridine-3-carboxylic acid amide], the Emax under setting [1] was determined as 146%. Besides, the EC50 under setting [2] worked out at 1220 nM.

As for `CCc1nc(N2CCOCC2)cc(C)c1C(=O)NCc1cccc(F)c1` [Example 22, 2-Ethyl-N-[(3-fluorophenyl)-methyl]-4-methyl-6-morpholin-4-yl-pyridine-3-carboxylic acid amide], under setting [1], the Emax was determined as 166%. Moreover, the EC50 under setting [2] is 790 nM.

For the compound `Cc1cc(N2CCOCC2)nc(C(C)C)c1C(=O)NCc1cccc(F)c1` [Example 23, N-[(3-Fluorophenyl)-methyl]-2-isopropyl-4-methyl-6-morpholin-4-yl-pyridine-3-carboxylic acid amide], under setting [1], the Emax amounted to 182%. Also, the EC50 under setting [2] was found to be 113 nM. The corresponding values for `Cc1cc(N2CCOCC2)nc(N2CCCC2)c1C(=O)NCc1cccc(F)c1` [Example 24, N-[(3-Fluorophenyl)-methyl]-4-methyl-6-morpholin-4-yl-2-pyrrolidin-1-yl-pyridine-3-carboxylic acid amide] are 210% and 308 nM.

For the compound `CCSc1nc(N2CCCC2)cc(C)c1C(=O)NCc1cccc(F)c1` [Example 25, 2-Ethylsulfanyl-N-[(3-fluorophenyl)-methyl]-4-methyl-6-pyrrolidin-1-yl-pyridine-3-carboxylic acid amide], the Emax under setting [1] was 162%. Besides, under setting [2], the EC50 is 211 nM. The corresponding values for `CCSc1nc(N2CCc3ccccc3C2)cc(C)c1C(=O)NCc1cccc(F)c1` [Example 26, 2-Ethylsulfanyl-N-[(3-fluorophenyl)-methyl]-4-methyl-6-(1,2,3,4-tetrahydro-isoquinolin-2-yl)-pyridine-3-carboxylic acid amide] are 155% and 132 nM.
